Patent US5856435A, “Nucleic acid-containing composition, its preparation and use” (Rhone-Poulenc Rorer SA, priority 1994, dated 1999)
In brackets after ≈: the same amount, converted by molar mass. Residues, ends and D or L forms follow the SMILES beside them.

Columns and labels:
[1] = system: T24/EJ cell line originating from a human bladder carcinoma; assay: Transfer of nucleic acid into cells: inhibition of cell proliferation induced by the antisense nucleic acid; assay type: cell-based; conditions: naked, 30 μM, 72 or 96 hours of culture
Description: The tests of nucleic acid transfer described in this example were performed on a cell line originating from a human bladder carcinoma, designated T24/EJ, available in the ATCC. The cells were cultured in MEM-EAGLE medium ("minimum essential medium", Biological Industries) supplemented with L-glutamine ((5 mM), streptomycin (50 u/ml) and penicillin (50 u/ml) in the presence of 7% of foetal calf serum decomplemented for 30 min at 60° C.
The cells (1500/well) were inoculated into 96-well microplates, in the absence or presence of nucleic acid, encapsulated or otherwise in nanoparticles, in a total volume of 100 μl. Each point was performed in triplicate. […]
In the first place, the incorporation of tritiated thymidine, which was determined after adding 2 μCi of 3 H thymidine per well. After 6 hours of incubation in an incubator, the plates were washed with a Skatron apparatus (Lier, Norway), the DNA was collected on a filter and each disc of the filter (corresponding to each well of the plate) was placed in scintillation fluid and then counted in a counter (LKB Wallac 1211 Minibeta). […]
Next, cell proliferation was evaluated by counting the cells in a Malassez cell. For this purpose, the supernatant was removed, the cells were trypsinized (10 min at 37° C.) and culture medium was added to them before they were counted.

[2] = study of the dichroic spectra: secondary structures adopted by the cationic oligopeptides; assay type: physicochemical
Source text: The capacity of the oligopeptides to form secondary structures may be verified by circular dichroism or in NMR, as shown in the examples.
Moreover, as shown in the Table below, a study of the dichroic spectra enabled the secondary structures adopted by the cationic oligopeptides used, in solution or after complexing, to be confirmed.

[3] = physchem; conditions: water
[4] = Encapsulation of the nucleic acid INV-Val13 in nanoparticles of PLA50(30)-PEG(2)
Source text: The nanoparticles used in this example are diblock copolymers consisting of a poly(D,L-lactic acid) linked via an ester bond to a poly(ethylene glycol): PLAp(M)-PEG(N) where M and N are, respectively, the average molecular masses (in kD) of the PLA and the PEG, and p is the percentage of L-lactic acid. The 2 types of nanoparticles used are PLA50(30)-PEG(2) and PLA50(30)-PEG(5). These copolymers may be synthesized by any technique known to a person skilled in the art (see, for example, EP 520,889).
The nucleic acids were treated with phage T4 polynucleotide kinase (Biolabs) in the presence of [γ-^32 P]ATP (Amersham) in a kinase buffer. After 30 min of incubation at 37° C., the nucleic acid was separated from unreacted ATP by application to a Sephadex G25 column (Quick Spin) and centrifugation.
This Example describes the encapsulation of the nucleic acid INV-Val13 in a nanoparticle of PLA50 (30)-PEG(2) in the presence or absence of oligopeptide (LKKL)10 (SEQ ID NO:6).
The polymer used, (PLA50(30)-PEG(2)), was solubilized in 1 ml of acetone at a concentration of 10 g/l. The isotopic dilution of the nucleic acid (final concentration 10^-5 M) was added, followed by the oligopeptide (at a concentration such that R=1). The organic solution obtained was then poured dropwise into 5 ml of an aqueous solution (50 mM Tris-HCl buffer pH 7.4) with stirring. […]

[5] = solubility of the oligopeptide in water
[6] = 50 mM phosphate buffer/0.2 M NaCl

Row | Compound | secondary structure (dichroic spectra) ([2]; 50 mM phosphate buffer) | secondary structure (dichroic spectra) [2, 6] | secondary structure (dichroic spectra) ([2]; Water/nucleic acid) | conformation in saline solution [2] | conformation in water ([2]; water) | secondary structure (dichroic spectra) ([2]; water) | other results
1 | 3'-CGCGGCAGCCAC-5' (chemistry not given here; listed 3' to 5') [AS-Val12] |  |  |  |  |  |  | inhibition of cell proliferation [1]: 42%
2 | CC(C)C[C@H](NC(=O)[C@H](CCCCN)NC(=O)[C@H](CCCCN)NC(=O)[C@H](CC(C)C)NC(=O)[C@H](CC(C)C)NC(=O)[C@H](CCCCN)NC(=O)[C@H](CCCCN)NC(=O)[C@H](CC(C)C)NC(=O)[C@H](CC(C)C)NC(=O)[C@H](CCCCN)NC(=O)[C@H](CCCCN)NC(=O)[C@H](CC(C)C)NC(=O)[C@H](CC(C)C)NC(=O)[C@H](CCCCN)NC(=O)[C@H](CCCCN)NC(=O)[C@H](CC(C)C)NC(=O)[C@H](CC(C)C)NC(=O)[C@H](CCCCN)NC(=O)[C@H](CCCCN)NC(=O)[C@H](CC(C)C)NC(=O)[C@H](CC(C)C)NC(=O)[C@H](CCCCN)NC(=O)[C@H](CCCCN)NC(=O)[C@H](CC(C)C)NC(=O)[C@H](CC(C)C)NC(=O)[C@H](CCCCN)NC(=O)[C@H](CCCCN)NC(=O)[C@H](CC(C)C)NC(=O)[C@H](CC(C)C)NC(=O)[C@H](CCCCN)NC(=O)[C@H](CCCCN)NC(=O)[C@H](CC(C)C)NC(=O)[C@H](CC(C)C)NC(=O)[C@H](CCCCN)NC(=O)[C@H](CCCCN)NC(=O)[C@H](CC(C)C)NC(=O)[C@H](CC(C)C)NC(=O)[C@H](CCCCN)NC(=O)[C@H](CCCCN)NC(=O)[C@@H](N)CC(C)C)C(=O)O [(LKKL)10, (H)-(Leucine-Lysine-Lysine-Leucine)10 -(OH)] (H-LKKLLKKLLKKLLKKLLKKLLKKLLKKLLKKLLKKLLKKL-OH) | α Helix | α Helix | α Helix | α-helical | unstructured | unstructured | solubility [3]: 50 mg/mL (≈ 10.3 mM)
3 | 3'-CACACCGACGGCG-5' (chemistry not given here; listed 3' to 5') [INV-Val13] |  |  |  |  |  |  | encapsulation yield of INV-Val13 in the nanoparticle ([4]; in the presence of oligopeptide (LKKL)10, R=1, nucleic acid 10^-5 M): 56%; encapsulation yield of INV-Val13 in the nanoparticle ([4]; without the oligopeptide, nucleic acid 10^-5 M): 5%
4 | Polylysine [reference compound] |  |  |  | not structured |  |  | 
5 | CC(C)C[C@H](NC(=O)[C@H](CCCCN)NC(=O)[C@H](CCCCN)NC(=O)[C@@H]1CCCN1C(=O)[C@H](CC(C)C)NC(=O)[C@H](CCCCN)NC(=O)[C@H](CCCCN)NC(=O)[C@@H]1CCCN1C(=O)[C@H](CC(C)C)NC(=O)[C@H](CCCCN)NC(=O)[C@H](CCCCN)NC(=O)[C@@H]1CCCN1C(=O)[C@H](CC(C)C)NC(=O)[C@H](CCCCN)NC(=O)[C@H](CCCCN)NC(=O)[C@@H]1CCCN1C(=O)[C@H](CC(C)C)NC(=O)[C@H](CCCCN)NC(=O)[C@H](CCCCN)NC(=O)[C@@H]1CCCN1C(=O)[C@H](CC(C)C)NC(=O)[C@H](CCCCN)NC(=O)[C@H](CCCCN)NC(=O)[C@@H]1CCCN1C(=O)[C@H](CC(C)C)NC(=O)[C@H](CCCCN)NC(=O)[C@H](CCCCN)NC(=O)[C@@H]1CCCN1C(=O)[C@H](CC(C)C)NC(=O)[C@H](CCCCN)NC(=O)[C@H](CCCCN)NC(=O)[C@@H]1CCCN1C(=O)[C@H](CC(C)C)NC(=O)[C@H](CCCCN)NC(=O)[C@H](CCCCN)NC(=O)[C@@H]1CCCN1C(=O)[C@H](CC(C)C)NC(=O)[C@H](CCCCN)NC(=O)[C@H](CCCCN)NC(=O)[C@@H]1CCCN1)C(=O)O [(PKKL)10, (H)-(Proline-Lysine-Lysine-Leucine)10 -(OH), reference compound] (H-PKKLPKKLPKKLPKKLPKKLPKKLPKKLPKKLPKKLPKKL-OH) | unstructured | unstructured | unstructured | not structured |  | unstructured | 
6 | CC(C)C[C@H](NC(=O)[C@H](CCCCN)NC(=O)[C@H](CC(C)C)NC(=O)[C@H](CCCCN)NC(=O)[C@H](CC(C)C)NC(=O)[C@H](CCCCN)NC(=O)[C@H](CC(C)C)NC(=O)[C@H](CCCCN)NC(=O)[C@H](CC(C)C)NC(=O)[C@H](CCCCN)NC(=O)[C@H](CC(C)C)NC(=O)[C@H](CCCCN)NC(=O)[C@H](CC(C)C)NC(=O)[C@H](CCCCN)NC(=O)[C@H](CC(C)C)NC(=O)[C@H](CCCCN)NC(=O)[C@H](CC(C)C)NC(=O)[C@H](CCCCN)NC(=O)[C@H](CC(C)C)NC(=O)[C@H](CCCCN)NC(=O)[C@H](CC(C)C)NC(=O)[C@H](CCCCN)NC(=O)[C@H](CC(C)C)NC(=O)[C@H](CCCCN)NC(=O)[C@H](CC(C)C)NC(=O)[C@H](CCCCN)NC(=O)[C@H](CC(C)C)NC(=O)[C@H](CCCCN)NC(=O)[C@H](CC(C)C)NC(=O)[C@H](CCCCN)NC(=O)[C@H](CC(C)C)NC(=O)[C@H](CCCCN)NC(=O)[C@H](CC(C)C)NC(=O)[C@H](CCCCN)NC(=O)[C@H](CC(C)C)NC(=O)[C@H](CCCCN)NC(=O)[C@H](CC(C)C)NC(=O)[C@H](CCCCN)NC(=O)[C@@H](N)CC(C)C)C(=O)N[C@@H](CCCCN)C(=O)O [(LKLK)10, (H)-(Leucine-Lysine-Leucine-Lysine)10 -(OH)] (H-LKLKLKLKLKLKLKLKLKLKLKLKLKLKLKLKLKLKLKLK-OH) | β Sheet | β Sheet | β Sheet | β-sheet | unstructured | unstructured | solubility [5]: 100 mg/mL (≈ 20.6 mM)
